The values below are quoted from earlier work in patent US6713077B1, “Control of shoot/foliar feeding pests with pesticide seed treatments” (Monsanto Technology, LLC, priority 1999, dated 2004).

For data set [1] the following is noted: cited from earlier work.
The conditions of data set [2]: cited from earlier work. The source holds these as a separate data set.

Read-outs that look alike come from different tables or passages of the source.

Turning to `C#CCN1CC(=O)N(COC(=O)[C@@H]2C(C=C(C)C)C2(C)C)C1=O` (mixture of isomers) [Imiprothrin], the Vapor pressure in data set [1] (25° C.) is 1.8 E-3 mPa. For `CC(C)[C@@H](Nc1ccc(C(F)(F)F)cc1Cl)C(=O)OC(C#N)c1cccc(Oc2ccccc2)c1` (mixture of isomers) [Tau-fluvalinate, (RS)-alpha-cyano-3-phenoxybenzyl(R)-2-[2-chloro-4-(trifluoromethyl)anilino]-3-methylbutanoate], the Water solubility in data set [2] (20° C.) is listed as 1.03 ppb (20° C.). In data set [1] (temperature not given), the Vapor pressure is on record as 9 E-8 mPa. In the case of `CC1(C)C(/C=C(\Cl)C(F)(F)F)C1C(=O)OC(C#N)c1cccc(Oc2ccccc2)c1` (racemic) [Cyhalothrin, [1α, 3α(Z)]-(±)-cyano-(3-phenoxyphenyl)methyl 3-(2-chloro-3,3,3-trifluoro-1-propenyl)-2,2-cimethylcyclopropanecarboxylate], in data set [2] (20° C.), the Water solubility is recorded as 0.004 ppb (20° C.). For the same compound, the Vapor pressure in data set [1] (temperature not given) is 0.001 mPa. As for `CC1(C)C(C=C(Cl)Cl)C1C(=O)OC(C#N)c1cccc(Oc2ccccc2)c1` (racemic) [Cypermethrin, (±) alpha-cyano-(3-phenoxyphenyl)methyl(+)-cis,trans-3-(2,2-dichloroethenyl)-2,2-dimethyl-cyclopropane carboxylate], the Vapor pressure in data set [1] (temperature not given) is on record as 2.3 E-4 mPa. As to `CC(C)[C@H](C(=O)OC(C#N)c1cccc(Oc2ccccc2)c1)c1ccc(OC(F)F)cc1` (mixture of isomers) [Flucythrinate, (±)-cyano (3-phenoxyphenyl)methyl (±)-4-(difluoromethoxy)-alpha-(1-methylethyl) benzeneacetate], the Water solubility in data set [2] (21° C.) was 0.5 mg/l (21° C.). Moreover, in data set [1] (25° C.), the Vapor pressure is 0.0012 mPa.

Consider `CC1(C)C(C=C(Cl)Cl)C1C(=O)OC(C#N)c1cccc(Oc2ccccc2)c1` (racemic) [Zeta-cypermethrin, S-cyano (3-phenoxyphenyl)methyl (±) cis/trans 3-(2,2-dichloroethenyl) 2,2 dimethylcyclopropane carboxylate], for which, in data set [1] (temperature not given), the Vapor pressure is listed as 2.5 E-4 mPa.

Turning to `CC1(C)[C@H](C(=O)O[C@H](C#N)c2cccc(Oc3ccccc3)c2)[C@@H]1/C=C\C(=O)OC(C(F)(F)F)C(F)(F)F` [Acrinathrin, (S)-alpha-cyano-3-phenoxybenzyl(Z)-(IR-cis)-2,2-dimethyl-3-[2-(2,2,2-trifluoro-trifluoromethyl-ethoxycarbonyl)vinyl]cyclopropane carboxylate], in data set [1] (temperature not given), the Vapor pressure is recorded as 4.4 E-5 mPa. Regarding `C=CCC1=C(C)C(OC(=O)C2C(C=C(C)C)C2(C)C)CC1=O` [Allethrin, (RS)-3-allyl-2-methyl-4-oxcyclopent-2-enyl-(1A,3R; 1R,3S)-2,2-dimethyl-3-(2-methylprop-1-enyl)cyclopropane carboxylate], the Water solubility result in data set [2] (in words) is on record as “practically insol”. In addition, the Vapor pressure in data set [1] (21° C.) is listed as 0.16 mPa.

As for `CC1(C)C(C=C(Cl)Cl)C1C(=O)OC(C#N)c1cccc(Oc2ccccc2)c1` (stereo not drawn) [Alpha cypermethrin, (IR cis) S and (IS cis) R enantiomer isomer pair of alpha-cyano-3-phenoxybenzyl-3-(2,2dichlorovinyl)-2,2-dimethylcyclopropane carboxylate], in data set [1] (temperature not given), the Vapor pressure was 2.3 E-2 mPa.

On to `CC1(C)C(C=C(Cl)Cl)C1C(=O)OC(C#N)c1ccc(F)c(Oc2ccccc2)c1` (stereo not drawn) [Beta cyfluthrin], for which the Water solubility in data set [2] (25° C.) is 1.2-2.1 μg/l (25° C.). Also, the Vapor pressure in data set [1] (no unit, temperature not given) is reported as 1.4 to 8.5 E-5.

With `CC1(C)[C@H](C=C(Cl)Cl)[C@H]1C(=O)O[C@@H](C#N)c1cccc(Oc2ccccc2)c1` [Beta-cypermethrin], in data set [1] (temperature not given), the Vapor pressure is given as 1.8 E-4 mPa. Turning to `C=CCC1=C(C)C(OC(=O)[C@@H]2[C@@H](C=C(C)C)C2(C)C)CC1=O` (stereo partly shown) [Bioallethrin], the Water solubility in data set [2] (temperature not given) is 4.6 mg/L. Also, the Vapor pressure in data set [1] (25° C.) was 43.9 mPa. With `CC(C)=C[C@@H]1[C@@H](C(=O)OCc2coc(Cc3ccccc3)c2)C1(C)C` [Bioresmethrin, (1R-trans)-[5-(phenylmethyl)-3-furanyl]methyl 2,2-dimethyl-3-(2-methyl-1-propenyl)cyclopropanecarboxylate], in data set [2] (temperature not given), the Water solubility is under 0.3 mg/L. For the same compound, the values for the Vapor pressure in data set [1] ((Tech.)) and in data set [1] ((d-resmethrin)) were 18.6 mPa and 0.45 mPa, respectively. For `CCOc1ccc(C2(C(=O)OC(C#N)c3cccc(Oc4ccccc4)c3)CC2(Cl)Cl)cc1` (stereo not shown) [Cycloprothrin, cyano-(3-phenoxyphenyl)methyl 2,2-dichloro-1-(4-ethoxyphenyl)cyclopropane carboxylate], the Water solubility in data set [2] (25° C.) is listed as 0.091 mg/l (25° C.). Further, in data set [1] (20° C.), the Vapor pressure is reported as 2.13 E-3 mPa.

For `CC1(C)C(C=C(Cl)Cl)C1C(=O)OC(C#N)c1ccc(F)c(Oc2ccccc2)c1` (stereo not shown) [Cyfluthrin, cyano(4-fluoro-3-phenoxyphenyl)methyl 3-(2,2-dichloroethenyl)-2,2-dimethyl-cyclopropanedarboxylate], in data set [2] (25° C.), the Water solubility is on record as 2-4.3 μg/l (25° C.). For the compound `CC(C)=CC1C(C(=O)OC(C#N)c2cccc(Oc3ccccc3)c2)C1(C)C` (stereo not shown) [Cyphenothrin], the Water solubility in data set [2] (25° C.) is listed as <10 μg/l (25° C.). In addition, in data set [1] (20° C.), the Vapor pressure is listed as 0.12 mPa. With `CC1(C)[C@H](C(=O)O[C@H](C#N)c2cccc(Oc3ccccc3)c2)[C@@H]1C=C(Br)Br` [Deltamethrin, (s)-alpha-cyano-3-phenoxybenzyl (IR,3R)-3-(2,2-dibromovinyl)-2,2-dimethyl cyclopropanecarboxylate], the Vapor pressure in data set [1] (temperature not given) is listed as 1.24 E-5 mPa. `C#CC(OC(=O)C1C(C=C(C)C)C1(C)C)/C(C)=C/CC` (stereo not shown) [Empenthrin]: the Vapor pressure in data set [1] (23.6° C.) is on record as 14 mPa. With `CC(C)[C@H](C(=O)O[C@H](C#N)c1cccc(Oc2ccccc2)c1)c1ccc(Cl)cc1` [Esfenvalerate, (S)-cyano (3-phenoxyphenyl) methyl (S)-4-chloro-alpha-(1-methylethyl)benzeneacetate], the Water solubility in data set [2] (temperature not given) is 0.002 mg/L. Further, in data set [1] (temperature not given), the Vapor pressure is on record as 2 E-4 mPa. `CC1(C)C(C(=O)OC(C#N)c2cccc(Oc3ccccc3)c2)C1(C)C` (stereo not drawn) [Fenpropathrin, alpha-cyano-3-phenoxybenzyl 2,2,3,3,-tetramethyl cyclopropoanecarboxylate]: the Water solubility in data set [2] (25° C.) was 14.1 μg/l (25° C.). Besides, the Vapor pressure in data set [1] (temperature not given) is 0.73 mPa.

Consider `CC(C)C(C(=O)OC(C#N)c1cccc(Oc2ccccc2)c1)c1ccc(Cl)cc1` (stereo not drawn) [Fenvalerate, (s)-cyano(3-phenoxyphenyl)methyl 4-chloro alpha (1-methylethyl)benzeneacetate], for which, in data set [2] (temperature not given), the Water solubility is under 0.01 mg/L. Besides, in data set [1] (20° C.), the Vapor pressure is given as 1.92 E-2 mPa. Regarding `CC1(C)C(C=C(Cl)Cl)C1C(=O)OCc1cccc(Oc2ccccc2)c1` (stereo not drawn) [Permethrin, (3-phenoxyphenyl)-methyl(+)cis-trans-3-(2,2-dichoroethenyl)-2,2-dimethylcyclopropanecarboxylate], the Vapor pressure in data set [1] (temperature not given) is recorded as 0.07 mPa. Regarding `CC(C)=CC1C(C(=O)OCc2cccc(Oc3ccccc3)c2)C1(C)C` (stereo not drawn) [Phenothrin, 3-phenoxybenzyl-d,l-cistrans 2,2-dimethyl-3-(2-methylpropenyl)cyclopropane carboxylate], the Water solubility in data set [2] (25° C.) is on record as <9.7 μg/l (25° C.). Further, in data set [1] (21.4° C.), the Vapor pressure is listed as 1.9 E-2 mPa.

For `C#CCC1=C(C)C(OC(=O)C2C(C=C(C)C)C2(C)C)CC1=O` (stereo not shown) [Prallethrin], the Vapor pressure in data set [1] (23.1° C.) is reported as under 0.013 mPa. Take `CC(C)=CC1C(C(=O)OCN2C(=O)C3=C(CCCC3)C2=O)C1(C)C` (stereo not drawn) [Tetramethrin, 3,4,5,6-tetra hydro-phthalimidomethyl-(IRS)-cis-trans-chrysanthemate]: the Vapor pressure in data set [1] (30° C.) is 0.944 mPa. In the case of `CC1(C)[C@H](C=C(Cl)Cl)[C@H]1C(=O)O[C@H](C#N)c1cccc(Oc2ccccc2)c1` [Theta cypermethrin], in data set [1] (temperature not given), the Vapor pressure is given as 1.8 E-4 mPa. Regarding `CC1(C)[C@H](C(=O)O[C@H](C#N)c2cccc(Oc3ccccc3)c2)[C@@H]1C(Br)C(Br)(Br)Br` (stereo partly shown) [Tralomethrin], the Vapor pressure in data set [1] (25° C.) is reported as 4.6 E-6 mPa. For `CC1(C)[C@H](C=C(Cl)Cl)[C@H]1C(=O)OCc1c(F)c(F)cc(F)c1F` [Transfluthrin], the Vapor pressure in data set [1] (temperature not given) was 0.4 mPa. `CC(C)C(C(=O)OC(C#N)c1cccc(Oc2ccc(Br)cc2)c1)c1ccc(OC(F)F)cc1` (stereo not shown) [ZXI8901]: the Vapor pressure in data set [1] (20° C.) is 1.6 E-4 mPa.
